Assay results: patent US20110130380A1, “Heteroaryl Kinase Inhibitors” (priority 2009, published 2011)

The molecules below were run against Cdk9/cyclinT1 (Homo sapiens, UniProt P50750) (assay: Cdk9/cyclinT1 IMAP Protocol (fluorescence polarization kinase assay)). Settings: Cdk9_cyclinT1_IC50, Table V; generated using one of the two Cdk9/cyclinT1 assays (IMAP or Alpha Screen), not stated which; ATP 6 uM.
Sequence of Cdk9/cyclinT1 (P50750 whole entry): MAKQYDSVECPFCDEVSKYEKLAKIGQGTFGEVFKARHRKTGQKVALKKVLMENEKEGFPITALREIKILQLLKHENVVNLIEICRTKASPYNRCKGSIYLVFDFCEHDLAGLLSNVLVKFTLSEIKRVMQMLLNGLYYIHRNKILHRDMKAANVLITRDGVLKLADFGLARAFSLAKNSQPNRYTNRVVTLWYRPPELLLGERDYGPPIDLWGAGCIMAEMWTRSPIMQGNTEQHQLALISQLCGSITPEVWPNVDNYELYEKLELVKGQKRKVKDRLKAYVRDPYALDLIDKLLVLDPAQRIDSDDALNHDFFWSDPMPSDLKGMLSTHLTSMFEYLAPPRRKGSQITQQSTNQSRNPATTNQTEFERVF
Sequence of Cdk9/cyclinT1 (O60563 whole entry partner): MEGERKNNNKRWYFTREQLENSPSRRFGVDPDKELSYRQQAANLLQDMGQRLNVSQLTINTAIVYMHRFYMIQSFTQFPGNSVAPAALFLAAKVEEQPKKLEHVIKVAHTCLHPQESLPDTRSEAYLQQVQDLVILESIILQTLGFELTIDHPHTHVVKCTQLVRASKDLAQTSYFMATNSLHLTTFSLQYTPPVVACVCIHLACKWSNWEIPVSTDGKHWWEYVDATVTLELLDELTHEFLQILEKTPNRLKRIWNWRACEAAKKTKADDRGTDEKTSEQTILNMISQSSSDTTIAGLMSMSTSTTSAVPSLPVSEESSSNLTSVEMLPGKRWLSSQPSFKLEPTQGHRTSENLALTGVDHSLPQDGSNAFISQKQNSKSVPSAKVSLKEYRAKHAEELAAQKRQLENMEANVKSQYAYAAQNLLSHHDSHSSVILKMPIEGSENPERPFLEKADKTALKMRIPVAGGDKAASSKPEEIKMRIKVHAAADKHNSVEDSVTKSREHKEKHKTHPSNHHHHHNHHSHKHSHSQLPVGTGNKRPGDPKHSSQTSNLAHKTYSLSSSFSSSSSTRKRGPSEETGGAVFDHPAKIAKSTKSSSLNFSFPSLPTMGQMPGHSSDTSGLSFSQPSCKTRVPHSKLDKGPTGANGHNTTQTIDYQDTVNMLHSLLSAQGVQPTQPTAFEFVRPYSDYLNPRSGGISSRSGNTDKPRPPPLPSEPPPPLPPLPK

| Structure (SMILES) | IC50 [nM] |
| --- | --- |
| O=C(Nc1cc(-c2cccc(NCC3CCOCC3)n2)c(Cl)cn1)[C@H]1CNC[C@@H]1O [Example 122, (3S,4R)-4-Hydroxy-pyrrolidine-3-carboxylic acid {5′-chloro-6-[(tetrahydro-pyran-4-ylmethyl)-amino]-[2,4′]bipyridinyl-2′-yl}-amide] | 15 |
| O=C(Nc1cc(-c2cccc(NCC3CCOCC3)n2)c(Cl)cn1)C1CCCOC1 (stereo not drawn) [Example 62, Tetrahydro-pyran-3-carboxylic acid {5′-chloro-6-[(tetrahydro-pyran-4-ylmethyl)-amino]-[2,4′]bipyridinyl-2′-yl}-amide] | 19 |
| O=C(Nc1cc(-c2cccc(NCC3CCCCO3)n2)c(Cl)cn1)[C@@H]1CCCNC1 (stereo partly drawn) [Example 34, (R)-Piperidine-3-carboxylic acid {5′-chloro-6-[(tetrahydro-pyran-2-ylmethyl)-amino]-[2,4′]bipyridinyl-2′-yl}-amide] | 10 |
| O=C(Nc1cc(-c2cccc(NCC3CCCCC3)n2)c(Cl)cn1)[C@H]1CCCNC1 [Example 38, (S)-Piperidine-3-carboxylic acid [5′-chloro-6-(cyclohexylmethyl-amino)-[2,4′]bipyridinyl-2′-yl]-amide] | 23 |
| COC[C@@H]1CC[C@H](C(=O)Nc2cc(-c3cccc(NCC4CCOCC4)n3)c(Cl)cn2)CN1 (racemic) [Example 220, (3S,6S)-/(3R,6R)-6-Methoxymethyl-piperidine-3-carboxylic acid {5′-chloro-6-[(tetrahydro-pyran-4-ylmethyl)-amino]-[2,4′]bipyridinyl-2′-yl}-amide] | 14 |
| O=C(Nc1cc(-c2cccc(NCC3CCOCC3)n2)c(Cl)cn1)[C@@H]1CCCN(CCF)C1 [Example 10, (R)-1-(2-Fluoro-ethyl)-piperidine-3-carboxylic acid {5′-chloro-6-[(tetrahydro-pyran-4-ylmethyl)-amino]-[2,4′]bipyridinyl-2′-yl}-amide] | 164 |
| O=C(Nc1cc(-c2ccc(F)c(NCC3CCOCC3)n2)c(Cl)cn1)[C@@H]1CCCNC1 [Example 135, (R)-Piperidine-3-carboxylic acid {5′-chloro-5-fluoro-6-[(tetrahydro-pyran-4-ylmethyl)-amino]-[2,4′]bipyridinyl-2′-yl}-amide] | 1 |
| CC1(C)COC(CNc2cccc(-c3cc(NC(=O)[C@@H]4CCCNC4)ncc3Cl)n2)CO1 (stereo partly drawn) [Example 218, (R)-Piperidine-3-carboxylic acid {5′-chloro-6-[(5,5-dimethyl-[1,4]dioxan-2-ylmethyl)-amino]-[2,4′]bipyridinyl-2′-yl}-amide] | 1 |
| O=C(Nc1cc(-c2ccc(C(F)(F)F)c(NCC3CCOCC3)n2)c(Cl)cn1)[C@@H]1CCCNC1 [Example 217, (R)-Piperidine-3-carboxylic acid {5′-chloro-6-[(tetrahydro-pyran-4-ylmethyl)-amino]-5-trifluoromethyl-[2,4′]bipyridinyl-2′-yl}-amide] | 4 |
| CC[C@@H]1CC[C@@H](C(=O)Nc2cc(-c3ccc(F)c(NCC4CCOCC4)n3)c(Cl)cn2)CN1 (racemic) [Example 250, (3R,6R)-/(3S,6S)-6-Ethyl-piperidine-3-carboxylic acid {5′-chloro-5-fluoro-6-[(tetrahydro-pyran-4-ylmethyl)-amino]-[2,4′]bipyridinyl-2′-yl}-amide] | 1 |
| CO[C@H]1CNC[C@@H]1C(=O)Nc1cc(-c2cccc(NCC3CCOCC3)n2)c(Cl)cn1 [Example 138, (3S,4R)-4-Methoxy-pyrrolidine-3-carboxylic acid {5′-chloro-6-[(tetrahydro-pyran-4-ylmethyl)-amino]-[2,4′]bipyridinyl-2′-yl}-amide] | < 8 |
| CC(C)S(=O)(=O)N1CCC[C@H](C(=O)Nc2cc(-c3nc(NC[C@H]4CCOC(C)(C)C4)ccc3Cl)c(Cl)cn2)C1 (single isomer, unassigned) [Example 173] | 1 |
| COCCNc1cccc(-c2cc(NC(=O)[C@@H]3CCCNC3)ncc2Cl)n1 [Example 26, (R)-Piperidine-3-carboxylic acid [5′-chloro-6-(2-methoxy-ethylamino)-[2,4′]bipyridinyl-2′-yl]-amide] | 32 |
| CS(=O)(=O)N[C@@H]1CC[C@H](C(=O)Nc2cc(-c3nc(NCC4CCOCC4)ccc3Cl)c(Cl)cn2)C1 [Example 109, (1S,3R)-3-Methanesulfonylamino-cyclopentanecarboxylic acid {3,5′-dichloro-6-[(tetrahydro-pyran-4-ylmethyl)-amino]-[2,4′]bipyridinyl-2′-yl}-amide] | < 8 |
| O=C(Nc1cc(-c2cccc(NCC3CCOCC3)n2)c(Cl)cn1)[C@H]1CCCN1 [Example 57, (R)-Pyrrolidine-2-carboxylic acid {5′-chloro-6-[(tetrahydro-pyran-4-ylmethyl)-amino]-[2,4′]bipyridinyl-2′-yl}-amide] | 81 |
| COC(=O)N1CCC[C@H](C(=O)Nc2cc(-c3nc(NC[C@@H]4CCOC(C)(C)C4)ccc3Cl)c(Cl)cn2)C1 (single isomer, unassigned) [Example 174] | 1 |
| CC(C)S(=O)(=O)N1CCC[C@H](C(=O)Nc2cc(-c3nc(NCC4CCOC(C)(C)C4)ccc3Cl)c(Cl)cn2)C1 (stereo partly drawn) [Example 139, (S)-1-(Propane-2-sulfonyl)-piperidine-3-carboxylic acid {3,5′-dichloro-6-[(2,2-dimethyl-tetrahydro-pyran-4-ylmethyl)-amino]-[2,4′]bipyridinyl-2′-yl}-amide] | < 8 |

| Structure (SMILES) | IC50 [nM] |
| --- | --- |
| CC1(C)CC(CNc2nc(-c3cc(NC(=O)[C@@H]4CCCNC4)ncc3Cl)ccc2F)CCO1 (stereo partly drawn) [Example 198, (R)-Piperidine-3-carboxylic acid {5′-chloro-6-[(2,2-dimethyl-tetrahydro-pyran-4-ylmethyl)-amino]-5-fluoro-[2,4′]bipyridinyl-2′-yl}-amide] | 1 |
| CC1(C)COC[C@H](CNc2cccc(-c3cc(NC(=O)[C@@H]4CCCNC4)ncc3Cl)n2)O1 (single isomer, unassigned) [Example 234] | 3 |
| CC(=O)N1CCC(CNc2cccc(-c3cc(NC(=O)[C@@H]4CCCNC4)ncc3Cl)n2)CC1 [Example 30, (R)-Piperidine-3-carboxylic acid {6-[(1-acetyl-piperidin-4-ylmethyl)-amino]-5′-chloro-[2,4′]bipyridinyl-2′-yl}-amide] | < 8 |
| O=C(Nc1cc(-c2nc(NCC3CCOCC3)ccc2Cl)c(Cl)cn1)[C@H]1CNC[C@H]1F [Example 102, (3R,4S)-4-Fluoro-pyrrolidine-3-carboxylic acid {3,5′-dichloro-6-[(tetrahydro-pyran-4-ylmethyl)-amino]-[2,4′]bipyridinyl-2′-yl}-amide] | 9 |
| O=C(Nc1cc(-c2cccc(NCC3CCOCC3)n2)c(Cl)cn1)C1CNC1 [Example 119, Azetidine-3-carboxylic acid {5′-chloro-6-[(tetrahydro-pyran-4-ylmethyl)-amino]-[2,4′]bipyridinyl-2′-yl}-amide] | 14 |
| O=C(Nc1cc(-c2nc(NCC3CCOCC3)ccc2F)c(Cl)cn1)[C@@H]1CCCNC1 [Example 157, (R)-Piperidine-3-carboxylic acid {5′-chloro-3-fluoro-6-[(tetrahydro-pyran-4-ylmethyl)-amino]-[2,4′]bipyridinyl-2′-yl}-amide] | 1 |
| O=C(Nc1cc(-c2cccc(NCC3CCOCC3)n2)c(Cl)cn1)[C@@H]1CNC[C@@H](C(F)(F)F)C1 (single isomer, unassigned) [Example 163] | 129 |
| O=C(Nc1cc(-c2nc(NCC3CCOCC3)ccc2F)c(Cl)cn1)C1CNCCOC1 (single isomer, unassigned) [Example 222] | 25 |
| O=C(Nc1cc(-c2ccc(F)c(NCC3CCOCC3)n2)c(Cl)cn1)[C@@H]1CCNC1 [Example 143, (R)-Pyrrolidine-3-carboxylic acid {5′-chloro-5-fluoro-6-[(tetrahydro-pyran-4-ylmethyl)-amino]-[2,4′]bipyridinyl-2′-yl}-amide] | 1 |
| O=C(Nc1cc(-c2cccc(NCc3cncc(F)c3)n2)c(Cl)cn1)[C@@H]1CCCNC1 [Example 41, (R)-Piperidine-3-carboxylic acid {5′-chloro-6-[(5-fluoro-pyridin-3-ylmethyl)-amino]-[2,4′]bipyridinyl-2′-yl}-amide] | < 8 |
| O=C(Nc1cc(-c2cccc(NCc3ccncc3)n2)c(Cl)cn1)[C@@H]1CCCNC1 [Example 54, (R)-Piperidine-3-carboxylic acid {5′-chloro-6-[(pyridin-4-ylmethyl)-amino]-[2,4′]bipyridinyl-2′-yl}-amide] | < 8 |
| C[C@@H]1CC(CNc2cccc(-c3cc(NC(=O)[C@@H]4CCCNC4)ncc3Cl)n2)C[C@H](C)O1 (stereo partly drawn) [Example 159, (R)-Piperidine-3-carboxylic acid {5′-chloro-6-[((2R,6S)-2,6-dimethyl-tetrahydro-pyran-4-ylmethyl)-amino]-[2,4′]bipyridinyl-2′-yl}-amide] | 1 |
| CN(CC1CCOCC1)c1cccc(-c2cc(NC(=O)[C@@H]3CCCNC3)ncc2Cl)n1 [Example 35, (R)-Piperidine-3-carboxylic acid {5′-chloro-6-[methyl-(tetrahydro-pyran-4-ylmethyl)-amino]-[2,4′]bipyridinyl-2′-yl}-amide] | < 8 |
| CCS(=O)(=O)N1CCC[C@H](C(=O)Nc2cc(-c3nc(NCC4CCOCC4)ccc3Cl)c(Cl)cn2)C1 [Example 111, (S)-1-Ethanesulfonyl-piperidine-3-carboxylic acid {3,5′-dichloro-6-[(tetrahydro-pyran-4-ylmethyl)-amino]-[2,4′]bipyridinyl-2′-yl}-amide] | < 8 |
| O=C(Nc1cc(-c2cccc(NCC3CCOCC3)n2)c(Cl)cn1)C1CNCCO1 (stereo not drawn) [Example 13, Morpholine-2-carboxylic acid {5′-chloro-6-[(tetrahydro-pyran-4-ylmethyl)-amino]-[2,4′]bipyridinyl-2′-yl}-amide] | 16 |
| CC1(C)C[C@@H](CNc2ccc(Cl)c(-c3cc(NC(=O)[C@H]4CNCCO4)ncc3Cl)n2)CCO1 (single isomer, unassigned) [Example 155] | 1 |
